Measured values from ChEMBL document CHEMBL1201862, “PubChem BioAssay data set” (2004).
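Results reflect a 48-hour exposure of cells in 96-well plates to compound at five concentrations. GI50 marks 50% less growth.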 Activity calls are given as the source filed them. Cut-off read from the data, not from the text of the source: active = GI50 up to about 1.1 µM and inactive = higher.

Columns and labels:
Experiment in all cases: growth of human tumour cells (NCI), 48 h
[1] = tested on: MDA-MB-435
[2] = tested on: UACC-62
[3] = tested on: SK-MEL-2
[4] = tested on: SF-268
[5] = tested on: TK-10
[6] = tested on: SK-OV-3
[7] = tested on: CCRF-CEM
[8] = tested on: U-251
[9] = tested on: HCT-15
[10] = tested on: SN12C
[11] = tested on: OVCAR-3
[12] = tested on: OVCAR-8
[13] = tested on: EKVX
[14] = tested on: NCI-H23
[15] = tested on: SK-MEL-5
[16] = tested on: MOLT-4
[17] = tested on: NCI-H226
[18] = tested on: UO-31
[19] = tested on: K562
[20] = tested on: SR

Row | SMILES | GI50 [1] | GI50 [2] | GI50 [3] | GI50 [4] | GI50 [5] | GI50 [6] | GI50 [7] | GI50 [8] | GI50 [9] [µM] | GI50 [10] | GI50 [11] | GI50 [12] | GI50 [13] | GI50 [14] | GI50 [15] | GI50 [16] | GI50 [17] | GI50 [18] | GI50 [19] | GI50 [20]
1 | CCC1C(C#N)=C(N)OC2=C1C(=O)CC(C)(C)C2 (stereo not given) | > 100 µM (inactive) | > 100 µM (inactive) | > 100 µM (inactive) | > 100 µM (inactive) | > 100 µM (inactive) | > 100 µM (inactive) | > 100 µM (inactive) | > 100 µM (inactive) | > 100 | > 100 µM (inactive) | > 100 µM (inactive) | > 100 µM (inactive) | > 100 µM (inactive) | > 100 µM (inactive) | > 100 µM (inactive) | > 100 µM (inactive) | – | – | – | –
2 | O=c1[nH]nc(Cc2ccccc2)n1/N=C/c1ccc(/C=N/n2c(Cc3ccccc3)n[nH]c2=O)cc1 | > 100 µM (inactive) | > 100 µM (inactive) | > 100 µM (inactive) | > 100 µM (inactive) | 54 µM (inactive) | – | 23.8 µM (inactive) | 57.3 µM (inactive) | > 100 | > 100 µM (inactive) | > 100 µM (inactive) | > 100 µM (inactive) | > 100 µM (inactive) | > 100 µM (inactive) | > 100 µM (inactive) | 19.4 µM (inactive) | > 100 µM (inactive) | > 100 µM (inactive) | 20.2 µM (inactive) | –
3 | N=C(N)N/N=C/c1c[nH]c2ccccc12 | – | > 100 µM (inactive) | > 100 µM (inactive) | > 100 µM (inactive) | > 100 µM (inactive) | > 100 µM (inactive) | > 100 µM (inactive) | > 100 µM (inactive) | > 100 | > 100 µM (inactive) | > 100 µM (inactive) | > 100 µM (inactive) | > 100 µM (inactive) | > 100 µM (inactive) | > 100 µM (inactive) | > 100 µM (inactive) | > 100 µM (inactive) | > 100 µM (inactive) | > 100 µM (inactive) | > 100 µM (inactive)
4 | CC(=O)NC(CCCN(Cc1ccccc1)C(=O)NCCCl)C(=O)NCc1ccccc1 (stereo not given) | – | > 100 µM (inactive) | > 100 µM (inactive) | > 100 µM (inactive) | > 100 µM (inactive) | > 100 µM (inactive) | > 100 µM (inactive) | > 100 µM (inactive) | > 100 | > 100 µM (inactive) | > 100 µM (inactive) | > 100 µM (inactive) | > 100 µM (inactive) | > 100 µM (inactive) | > 100 µM (inactive) | > 100 µM (inactive) | > 100 µM (inactive) | > 100 µM (inactive) | > 100 µM (inactive) | > 100 µM (inactive)
5 | O=C(O)CSCC(=O)Nc1ccc2cccc3c2c1CC3 | > 100 µM (inactive) | > 100 µM (inactive) | > 100 µM (inactive) | > 100 µM (inactive) | > 100 µM (inactive) | – | > 100 µM (inactive) | > 100 µM (inactive) | > 100 | > 100 µM (inactive) | > 100 µM (inactive) | > 100 µM (inactive) | > 100 µM (inactive) | > 100 µM (inactive) | > 100 µM (inactive) | > 100 µM (inactive) | – | > 100 µM (inactive) | > 100 µM (inactive) | –
6 | CCC1=CC2CN3Cn4c(c(COCc5c6n(c7ccccc57)CN5CC7C=C(CC)C5C6(C(=O)OC)C7)c5ccccc54)C(C(=O)OC)(C2)C13 | – | > 100 µM (inactive) | > 100 µM (inactive) | 66.8 µM (inactive) | > 100 µM (inactive) | 92.5 µM (inactive) | > 100 µM (inactive) | > 100 µM (inactive) | > 100 | > 100 µM (inactive) | > 100 µM (inactive) | > 100 µM (inactive) | > 100 µM (inactive) | > 100 µM (inactive) | > 100 µM (inactive) | > 100 µM (inactive) | > 100 µM (inactive) | > 100 µM (inactive) | > 100 µM (inactive) | > 100 µM (inactive)
7 | Cc1c(C(=O)Nc2ccc(Cl)c(C(F)(F)F)c2)oc2cc(O)ccc2/c1=N\NC(N)=S | – | > 100 µM (inactive) | > 100 µM (inactive) | > 100 µM (inactive) | > 100 µM (inactive) | > 100 µM (inactive) | > 100 µM (inactive) | > 100 µM (inactive) | > 100 | > 100 µM (inactive) | > 100 µM (inactive) | > 100 µM (inactive) | > 100 µM (inactive) | > 100 µM (inactive) | > 100 µM (inactive) | > 100 µM (inactive) | > 100 µM (inactive) | > 100 µM (inactive) | > 100 µM (inactive) | > 100 µM (inactive)
8 | O=C1CCC(=O)N1CNc1ccc2c(c1)Sc1ccccc1O2 | 31.9 µM (inactive) | 48.9 µM (inactive) | 18.1 µM (inactive) | 44.8 µM (inactive) | 38 µM (inactive) | – | 29 µM (inactive) | 30.3 µM (inactive) | 28.4 | 27.6 µM (inactive) | 26.5 µM (inactive) | 25.9 µM (inactive) | 22 µM (inactive) | 38.5 µM (inactive) | 26.4 µM (inactive) | 61.7 µM (inactive) | 20.4 µM (inactive) | 23.2 µM (inactive) | 49.8 µM (inactive) | –
9 | Cc1ccc(S(=O)(=O)N/N=C(\c2nc3ccc(Cl)cc3nc2O)C(O)c2cccc([N+](=O)[O-])c2)cc1 (stereo not given) | – | > 100 µM (inactive) | > 100 µM (inactive) | > 100 µM (inactive) | > 100 µM (inactive) | > 100 µM (inactive) | 52.7 µM (inactive) | > 100 µM (inactive) | > 100 | > 100 µM (inactive) | > 100 µM (inactive) | > 100 µM (inactive) | > 100 µM (inactive) | > 100 µM (inactive) | > 100 µM (inactive) | > 100 µM (inactive) | > 100 µM (inactive) | > 100 µM (inactive) | > 100 µM (inactive) | > 100 µM (inactive)
10 | CCCCCCCCCCCC(=O)c1c(O)cccc1O | – | 19.6 µM (inactive) | 15.4 µM (inactive) | 16.3 µM (inactive) | 33 µM (inactive) | 30.8 µM (inactive) | 24.5 µM (inactive) | 19.3 µM (inactive) | 18.6 | 19 µM (inactive) | 17.5 µM (inactive) | 17.9 µM (inactive) | 19.1 µM (inactive) | 17.6 µM (inactive) | 13.6 µM (inactive) | 20.4 µM (inactive) | 19.3 µM (inactive) | 16.5 µM (inactive) | 31.9 µM (inactive) | 21 µM (inactive)
11 | O=C1NC(=O)C(C(c2ccc(Cl)cc2)C2C(=O)NC(=O)NC2=O)C(=O)N1.c1ccncc1 | > 100 µM (inactive) | > 100 µM (inactive) | > 100 µM (inactive) | – | > 100 µM (inactive) | – | > 100 µM (inactive) | > 100 µM (inactive) | > 100 | > 100 µM (inactive) | > 100 µM (inactive) | > 100 µM (inactive) | > 100 µM (inactive) | > 100 µM (inactive) | > 100 µM (inactive) | > 100 µM (inactive) | > 100 µM (inactive) | > 100 µM (inactive) | > 100 µM (inactive) | –
